Changes are numbered by the printed parent chain.

The term IC50 denotes the point on the concentration scale where inhibition reaches its midpoint. High values mean a need for much substance, low ones inhibition by little substance.

Experiment [1] addresses T1, KGA_F318Y/F322S (Homo sapiens, UniProt O94925, F318Y/F322S).
T1 construct: a KGA cDNA fragment of 1644 bp (residues Leu123-Leu669); His-tag (N); made in house; host or cells: Escherichia coli
T1 sequence (O94925 123-669 F318Y/F322S): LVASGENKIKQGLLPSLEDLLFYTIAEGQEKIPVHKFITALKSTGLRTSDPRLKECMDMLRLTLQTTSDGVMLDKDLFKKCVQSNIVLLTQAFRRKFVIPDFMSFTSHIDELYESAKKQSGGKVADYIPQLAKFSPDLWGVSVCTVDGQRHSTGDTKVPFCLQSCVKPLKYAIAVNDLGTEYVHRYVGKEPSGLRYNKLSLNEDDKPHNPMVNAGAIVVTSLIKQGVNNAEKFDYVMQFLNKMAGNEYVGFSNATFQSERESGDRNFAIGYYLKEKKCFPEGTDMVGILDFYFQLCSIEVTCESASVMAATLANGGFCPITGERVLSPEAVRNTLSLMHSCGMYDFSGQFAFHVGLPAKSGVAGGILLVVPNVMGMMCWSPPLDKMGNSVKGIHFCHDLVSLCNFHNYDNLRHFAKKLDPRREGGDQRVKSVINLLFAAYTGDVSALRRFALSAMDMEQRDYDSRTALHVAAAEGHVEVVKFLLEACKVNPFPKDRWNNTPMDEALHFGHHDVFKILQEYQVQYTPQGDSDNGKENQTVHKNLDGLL
Kind of experiment: Glutaminase activity assay, KGA mutant F318Y/F322S. It is filed as biochemical. On the procedure: Human glutaminase activity was measured using a two-step assay as described previously. A microtiter assay format was used to facilitate the collection of multiple data points. […] Samples were incubated at 25°C for 10 min and then 10 μl of 200 mM glutamine were added to the reaction mix. After adding glutamine, the reactions were incubated at 37°C for 60 min and then quenched by the addition of 10 μl of 0.6 M HCl. Subsequently, 100 μl of a second reaction mixture (3.7 units of purified bovine liver glutamate dehydrogenase, 160 mM Tris/acetate [pH 9.4], 400 mM hydrazine, 5 mM ADP and 2 mM NAD^+) was added to the stopped first reaction mixture and incubated for 30 min at 25°C. The absorbance at 340 nm was measured using a Wallac Victor2V plate reader (PerkinElmer), fitted with a 340 nm excitation filter. Sample absorbance was measured against a blank, containing no human glutaminase.
Site-directed mutagenesis was performed on the pET28a(+)-GAB or pET28a(+)-KGA plasmids using PfuUltra II Fusion HS DNA polymerase (Agilent Technologies) to create the GAB and KGA mutants. The deep view program (Version 3.7) of the Swiss-MODEL server was used to generate the three dimensional structure of homologous modeled GAB. Using the integrated sequence alignment tools and structural superimposition algorithms, the target sequence was mapped on the modeling templates.

The target in experiment [2] is T2, KGA_ H519Q/D520K (Homo sapiens, UniProt O94925, D520K/H519Q).
T2 construct: a KGA cDNA fragment of 1644 bp (residues Leu123-Leu669); His-tag (N); made in house; host or cells: Escherichia coli
T2 sequence (O94925 123-669 H519Q/D520K): T1 sequence (O94925 123-669 F318Y/F322S) with Y196F, S200F, H397Q, D398K
Kind of experiment: Glutaminase activity assay, KGA mutant H519Q/D520K. It is filed as biochemical. As for the experimental part:
Human glutaminase activity was measured using a two-step assay as described previously. A microtiter assay format was used to facilitate the collection of multiple data points. Typically, 10 μl of compound, which was dissolved in DMSO, was added to 80 μl of an initial assay mix (0.1 mM hKGA, 0.2 mM EDTA and 50 mM Tris/acetate, pH 8.6). Samples were incubated at 25°C for 10 min and then 10 μl of 200 mM glutamine were added to the reaction mix. After adding glutamine, the reactions were incubated at 37°C for 60 min and then quenched by the addition of 10 μl of 0.6 M HCl. Subsequently, 100 μl of a second reaction mixture (3.7 units of purified bovine liver glutamate dehydrogenase, 160 mM Tris/acetate [pH 9.4], 400 mM hydrazine, 5 mM ADP and 2 mM NAD^+) was added to the stopped first reaction mixture and incubated for 30 min at 25°C. The absorbance at 340 nm was measured using a Wallac Victor2V plate reader (PerkinElmer), fitted with a 340 nm excitation filter. Sample absorbance was measured against a blank, containing no human glutaminase.
Site-directed mutagenesis was performed on the pET28a(+)-GAB or pET28a(+)-KGA plasmids using PfuUltra II Fusion HS DNA polymerase (Agilent Technologies) to create the GAB and KGA mutants. […] The sequence alignment was compared with crystal structure of the GAC (PDB code: 3UO9) and the resulting model of GAB was analyzed using the Swiss-PDB server. […]

Turning to `CCCCCCCCCCCCCC(CC1=CC(=O)C=C(OC)C1=O)OC(C)=O` (centres unmarked) [AV-1], the results for the IC50 in experiment [1] and in experiment [2] were 2400 nM and 230 ± 30 nM, respectively.

The values above are taken from article PMC4171615, “Discovery of selective inhibitors of Glutaminase-2, which inhibit mTORC1, activate autophagy and inhibit proliferation in cancer cells” (Oncotarget, 2014).
